Assay results published in patent US12208088B2 (Genentech, Inc., priority 2018, dated 2025).

Each compound was assayed against HPK1 (Homo sapiens (Human), UniProt Q92918) (assay: HPK1 Lantha binding assay ("Lanth")). Details: binding assays; Morrison Ki fit.
Procedure, shortened: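 Ki values are from Morrison-equation fitting of 665/615 nm TR-FRET signals, taking enzyme level, tracer level and tracer Kd into account. The assay mix held HPK1 (2 nM), Eu-anti-GST antibody (2 nM) and Tracer222 (15 nM). Incubations were two 1 h steps at 23 °C, on 5-fold serial compound dilutions.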

Chain of HPK1 (Q92918 1-346 limits assumed): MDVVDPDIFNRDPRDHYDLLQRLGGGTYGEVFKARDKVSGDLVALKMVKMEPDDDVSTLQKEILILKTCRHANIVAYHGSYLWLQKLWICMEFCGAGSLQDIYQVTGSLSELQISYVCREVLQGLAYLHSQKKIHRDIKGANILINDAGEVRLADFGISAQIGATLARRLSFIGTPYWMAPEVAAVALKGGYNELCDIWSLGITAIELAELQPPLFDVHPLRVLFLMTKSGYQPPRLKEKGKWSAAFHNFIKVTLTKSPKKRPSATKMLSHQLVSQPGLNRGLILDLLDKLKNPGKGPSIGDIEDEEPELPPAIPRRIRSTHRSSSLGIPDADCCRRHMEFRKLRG

Cn1cc(C2CCCCN2C(=O)c2c(N)ccc(-c3cnc4c(c3Cl)[C@]3(CC[C@H](O)CC3)CN4)c2F)cn1 (single isomer, unassigned) [Compound 254a] and CN(C)C(=O)c1c(N)ccc(-c2cnc3c(c2Cl)C2(CC2)CN3)c1F [Compound 8, 6-Amino-3-(4′-chloro-1′,2′-dihydrospiro[cyclopropane-1,3′-pyrrolo[2,3-b]pyridin]-5′-yl)-2-fluoro-N,N-dimethylbenzamide] are within 1.5-fold of each other in Ki: 5.2 nM for the first, 7.71 nM for the second.

Going from Cn1cc(C2CCCCN2C(=O)c2c(N)ccc(-c3cnc4c(c3Cl)[C@]3(CC[C@H](O)CC3)CN4)c2F)cn1 (single isomer, unassigned) [Compound 254b] to CO[C@@H]1C[C@@]2(CNc3ncc(-c4ccc(N)c(C(=O)N(C)C)c4F)c(Cl)c32)C[C@H]1O (stereo in doubt) [Compound 140a, 6-Amino-3-((1R,3S,4S)-4′-chloro-3-hydroxy-4-methoxy-1′,2′-dihydrospiro[cyclopentane-1,3′-pyrrolo[2,3-b]pyridin]-5′-yl)-2-fluoro-N,N-dimethylbenzamide], the Ki rises from 109 nM to 339 nM (3.1-fold). The first binds more tightly here.

First: CN(C)C(=O)c1c(N)ccc(-c2cnc3c(c2Cl)[C@]2(CC[C@](C)(C#N)C2)CN3)c1F (single isomer, unassigned) [Compound 261a]
Second: CN(C)C(=O)c1c(N)ccc(-c2cnc3c(c2Cl)[C@@]2(CC[C@@](C)(C#N)C2)CN3)c1F (single isomer, unassigned) [Compound 261b]
The Ki of the first is 8.8-fold lower: 4.2 nM for the first, 37.1 nM for the second. The first binds more tightly here.

First: Cc1c(CC#N)ccnc1-c1cccc(-c2cnc3c(c2Cl)[C@]2(CC[C@](C)(C#N)C2)CN3)c1F (single isomer, unassigned) [Compound 266a]
Second: Cc1c(CC#N)ccnc1-c1cccc(-c2cnc3c(c2Cl)[C@@]2(CC[C@@](C)(C#N)C2)CN3)c1F (single isomer, unassigned) [Compound 266b]
The Ki of the first is 17-fold higher: 65.3 nM for the first, 3.9 nM for the second. The second binds more tightly here.

Going from Cc1c(CC#N)ccnc1-c1cccc(-c2cnc3c(c2Cl)[C@]2(CC[C@](C)(C(N)=O)C2)CN3)c1F (single isomer, unassigned) [Compound 267a] to Cc1c(CC#N)ccnc1-c1cccc(-c2cnc3c(c2Cl)[C@@]2(CC[C@@](C)(C(N)=O)C2)CN3)c1F (single isomer, unassigned) [Compound 267b], the Ki falls from 110 nM to 0.39 nM (280-fold).

Going from CN(C)CCN(C)C(=O)c1c(N)ccc(-c2cnc3c(c2Cl)[C@]2(CC[C@](C)(C#N)C2)CN3)c1F (single isomer, unassigned) [Compound 271a] to CO[C@H]1C[C@]2(CNc3ncc(-c4ccc(N)c(C(=O)N(C)C)c4F)c(Cl)c32)C[C@@H]1O (stereo in doubt) [Compound 140b, 6-Amino-3-((1S,3R,4R)-4′-chloro-3-hydroxy-4-methoxy-1′,2′-dihydrospiro[cyclopentane-1,3′-pyrrolo[2,3-b]pyridin]-5′-yl)-2-fluoro-N,N-dimethylbenzamide], the Ki rises from 24.9 nM to 62.5 nM (2.5-fold). The first binds more tightly here.

Cc1c(CC#N)ccnc1-c1cc(N)cc(-c2cnc3c(c2Cl)[C@]2(CC[C@](C)(C#N)C2)CN3)c1 (single isomer, unassigned) [Compound 274a] and Nc1cc(-c2cnc3c(c2)C2(CC2)CN3)cc(-c2ncccc2CO)c1 [Compound 10, (2-(3-Amino-5-(1′,2′-dihydrospiro[cyclopropane-1,3′-pyrrolo[2,3-b]pyridin]-5′-yl)phenyl)pyridin-3-yl)methanol] are within 1.5-fold of each other in Ki: 13.3 nM for the first, 12.7 nM for the second.

Compared with Cc1c(CC#N)ccnc1-c1cc(N)cc(-c2cnc3c(c2Cl)[C@]2(CC[C@](C)(C#N)C2)CN3)c1 (single isomer, unassigned) [Compound 274b], CN(C)C(=O)c1c(N)ccc(-c2cnc3c(c2)C2(CC2)CN3)c1Cl [Compound 14, 6-amino-2-chloro-3-(1′,2′-dihydrospiro[cyclopropane-1,3′-pyrrolo[2,3-b]pyridin]-5′-yl)-N,N-dimethylbenzamide] is 960-fold higher in Ki: 0.9 nM for the first, 863 nM for the second.

Compared with O=C1CCCCN1c1cccc2c(-c3cnc4c(c3Cl)[C@]3(CC[C@H](O)C3)CN4)c[nH]c12 (single isomer, unassigned) [Compound 300a], O=C1CCCCN1c1cccc2c(-c3cnc4c(c3Cl)[C@@]3(CC[C@@H](O)C3)CN4)c[nH]c12 (single isomer, unassigned) [Compound 300b] is 10-fold higher in Ki: 27 nM for the first, 270 nM for the second.

First: CN(C)C(=O)c1c(N)ccc(-c2cnc3c(c2Cl)[C@]2(CN3)CC(O)C(n3ccnn3)C2)c1F (stereo in doubt) [Compound 146a, 6-Amino-3-((1R,3S,4S)-4′-chloro-3-hydroxy-4-(1H-1,2,3-triazol-1-yl)-1′,2′-dihydrospiro[cyclopentane-1,3′-pyrrolo[2,3-b]pyridin]-5′-yl)-2-fluoro-N,N-dimethylbenzamide]
Second: CN(C)C(=O)c1c(N)ccc(-c2cnc3c(c2)C2(CC2)CN3)c1F [Compound 6, 6-Amino-3-(1′,2′-dihydrospiro[cyclopropane-1,3′-pyrrolo[2,3-b]pyridin]-5′-yl)-2-fluoro-N,N-dimethylbenzamide]
The Ki of the first is 22-fold higher: 494 nM for the first, 22.7 nM for the second.

Going from CN(C)C(=O)c1cc(-c2cnc3c(c2)C2(CCCC2)CN3)ccc1N [Compound 1, 2-Amino-5-(1′,2′-dihydrospiro[cyclopentane-1,3′-pyrrolo[2,3-b]pyridin]-5′-yl)-N,N-dimethylbenzamide] to CN(C)C(=O)c1cc(-c2cnc3c(c2)C2(CCC2)CN3)ccc1N [Compound 4, 2-Amino-5-(1′,2′-dihydrospiro[cyclobutane-1,3′-pyrrolo[2,3-b]pyridin]-5′-yl)-N,N-dimethylbenzamide], the Ki rises from 28.8 nM to 71.7 nM (2.5-fold).

Going from CN(C)C(=O)c1cc(-c2cnc3c(c2)C2(CC2)CN3)ccc1N [Compound 2, 2-Amino-5-(1′,2′-dihydrospiro[cyclopropane-1,3′-pyrrolo[2,3-b]pyridin]-5′-yl)-N,N-dimethylbenzamide] to CN(C)C(=O)c1cc(-c2cnc3c(c2)C2(CC2)CN3)ccc1CO [Compound 18, 5-(1′,2′-dihydrospiro[cyclopropane-1,3′-pyrrolo[2,3-b]pyridin]-5′-yl)-2-(hydroxymethyl)-N,N-dimethylbenzamide], the Ki rises from 35.6 nM to 259 nM (7.3-fold).

First: O=C1COCCN1c1cccc(-c2cnc3c(c2)C2(CC2)CN3)c1 [Compound 3, 4-(3-(1′,2′-Dihydrospiro[cyclopropane-1,3′-pyrrolo[2,3-b]pyridin]-5′-yl)phenyl)morpholin-3-one]
Second: O=C1COCCN1c1cccc(-c2cnc3c(c2)C2(CCC2)CN3)c1 [Compound 5, 4-(3-(1′,2′-Dihydrospiro[cyclobutane-1,3′-pyrrolo[2,3-b]pyridin]-5′-yl)phenyl)morpholin-3-one]
The Ki of the first is 2.4-fold lower: 40.3 nM for the first, 98.7 nM for the second.

CN(CCO)C(=O)c1c(N)ccc(-c2cnc3c(c2)C2(CC2)CN3)c1F [Compound 7, 6-amino-3-(1′,2′-dihydrospiro[cyclopropane-1,3′-pyrrolo[2,3-b]pyridin]-5′-yl)-2-fluoro-N-(2-hydroxyethyl)-N-methylbenzamide] and CN(C(=O)c1c(N)ccc(-c2cnc3c(c2)C2(CC2)CN3)c1F)C(C)(C)CO [Compound 19, 6-amino-3-(1′,2′-dihydrospiro[cyclopropane-1,3′-pyrrolo[2,3-b]pyridin]-5′-yl)-2-fluoro-N-(1-hydroxy-2-methylpropan-2-yl)-N-methylbenzamide] are within 1.5-fold of each other in Ki: 21.6 nM for the first, 20.8 nM for the second.

Going from O=C1COCCN1c1cccc(-c2cnc3c(c2)C2(CC2)CN3)c1F [Compound 9, 4-(3-(1′,2′-Dihydrospiro[cyclopropane-1,3′-pyrrolo[2,3-b]pyridin]-5′-yl)-2-fluorophenyl)morpholin-3-one] to CNS(=O)(=O)c1cccc(-c2cnc3c(c2)C2(CC2)CN3)c1F [Compound 22, 3-(1′,2′-dihydrospiro[cyclopropane-1,3′-pyrrolo[2,3-b]pyridin]-5′-yl)-2-fluoro-N-methylbenzenesulfonamide], the Ki rises from 38.9 nM to 869 nM (22-fold).

First: NS(=O)(=O)Cc1ccc(-c2cnc3c(c2)C2(CC2)CN3)cc1 [Compound 11, (4-(1′,2′-Dihydrospiro[cyclopropane-1,3′-pyrrolo[2,3-b]pyridin]-5′-yl)phenyl)methanesulfonamide]
Second: CN(C)S(=O)(=O)c1cccc(-c2cnc3c(c2)C2(CC2)CN3)c1F [Compound 21, 3-(1′,2′-dihydrospiro[cyclopropane-1,3′-pyrrolo[2,3-b]pyridin]-5′-yl)-2-fluoro-N,N-dimethylbenzenesulfonamide]
The Ki of the first is 3.3-fold lower: 91.2 nM for the first, 297 nM for the second. The first binds more tightly here.

Going from CN(CCO)C(=O)c1cccc(-c2cnc3c(c2)C2(CC2)CN3)c1F [Compound 12, 3-(1′,2′-Dihydrospiro[cyclopropane-1,3′-pyrrolo[2,3-b]pyridin]-5′-yl)-2-fluoro-N-(2-hydroxyethyl)-N-methylbenzamide] to CN(C)C(=O)c1cc(CO)cc(-c2cnc3c(c2)C2(CC2)CN3)c1 [Compound 16, 3-(1′,2′-dihydrospiro[cyclopropane-1,3′-pyrrolo[2,3-b]pyridin]-5′-yl)-5-(hydroxymethyl)-N,N-dimethylbenzamide], the Ki rises from 37.6 nM to 521 nM (14-fold).

Going from CC1(C)C(=O)Nc2ccc(-c3cnc4c(c3)C3(CC3)CN4)cc21 [Compound 13, 5-(1′,2′-dihydrospiro[cyclopropane-1,3′-pyrrolo[2,3-b]pyridin]-5′-yl)-3,3-dimethylindolin-2-one] to CC1(O)C(=O)Nc2ccc(-c3cnc4c(c3)C3(CC3)CN4)cc21 (centres unmarked) [Compound 20, 5-(1′,2′-dihydrospiro[cyclopropane-1,3′-pyrrolo[2,3-b]pyridin]-5′-yl)-3-hydroxy-3-methylindolin-2-one], the Ki rises from 21.6 nM to 212 nM (9.8-fold).

Compared with CC1Nc2ncc(-c3ccc(N)c(C(=O)N(C)C)c3F)cc2C12CC2 (centres unmarked) [Compound 15, 6-Amino-2-fluoro-N,N-dimethyl-3-(2′-methyl-1′,2′-dihydrospiro[cyclopropane-1,3′-pyrrolo[2,3-b]pyridin]-5′-yl)benzamide], Nc1ccc(-c2cnc3c(c2)C2(CC2)CN3)c(F)c1C(=O)N1CCCC1CO (centres unmarked) [Compound 17, (6-amino-3-(1′,2′-dihydrospiro[cyclopropane-1,3′-pyrrolo[2,3-b]pyridin]-5′-yl)-2-fluorophenyl)(2-(hydroxymethyl)pyrrolidin-1-yl)methanone] is 3.7-fold lower in Ki: 122 nM for the first, 32.8 nM for the second.
